We go through two molecules from patent US7718676B2, “2-aminoaryloxazole compounds as tyrosine kinase inhibitors” (AB Science, priority 2003, dated 2010).

Structures are written as SMILES.

Usually melting point stands for the temperature, or range, at which the solid turns liquid. `Cc1ccc(C(=O)Nc2ccc(C#N)cc2)cc1Nc1ncc(-c2cccnc2)o1` [Compound 058, N-(4-Cyano-phenyl)-4-methyl-3-(5-pyridin-3-yl-oxazol-2-ylamino)-benzamide] returned a melting point of 203 °C.

As to `Cc1ccc(NC(=O)c2cccc(N(C)C)c2)cc1Nc1ncc(-c2cccnc2)o1` [Compound 010, 3-Dimethylamino-N-[4-methyl-3-(5-pyridin-3-yl-oxazol-2-ylamino)-phenyl]-benzamide], the melting point came to 228 °C.
